# Measurements as given in US20110124620A1, “SPHINGOSINE 1 PHOSPHATE RECEPTOR MODUATORS AND THEIR USE TO TREAT MUSCLE INFLAMMATION” (priority 2008, published 2011).
# System: Primary Human Myotubes
# Assay: Effect on cytokine-induced atrophy of primary human myotubes (myotube diameter)
# Format: cell-based
# Method: In Vitro: Effect on Cytokine-Induced Atrophy of Primary Human Myotubes.
# Human skeletal muscle (skMC) cells are obtained from Cambrex (#CC-2561). For experiments skMC stocks are thawed and maintained in SkBM (Lonza CC-3161) containing 20% FCS and 0.1% gentamycin at 37° C., 5% CO2. After 4-5 days cells are seeded for experiments onto six-well plates coated with matrigel (450,000/well) and grown at 37° C., 5% CO2 for one day. Cells are then washed 3× with SkBM and differentiated into myotubes with SkBM containing 1 μM SB431542 (ALK4/5 inhibitor; Sigma #S4317) for 4 days (SB431542 is removed 24 h prior cell treatment). Myotubes are then treated with test compound either in the absence or in the presence of a cytokine cocktail (TNFα 10 ng/ml, IL-1β 2 ng/ml, IFNγ 10 ng/ml) for 24 h in SkBM plus 0.1% gentamycin, washed once with CSB buffer: 80 mM pipes, […], 1 mM MgCl 6H20 and 4% PEG35000 (Fluka #94646) and fixed with 4% paraformaldehyde (Electron Microscopy Sciences #15714) in CSB for 15 min at room temperature. […] Average diameters of at least 40 myotubes are measured for each condition at three points separated by 50 μm along the length of the myotube.
smiles,measurement,setting,value
"CCc1cc(C(C)=NOCc2ccc(C3CCCCC3)c(C(F)(F)F)c2)ccc1CN1CC(C(=O)O)C1 [Compound A, 1-{4-[1-(4-cyclohexyl-3-trifluoromethyl-benzyloxyimino)-ethyl]-2-ethyl-benzyl}-azetidine-3-carboxylic acid]",effect on cytokine-induced atrophy (myotube diameter),"Compound A 1 nM, cytokine cocktail (TNFα 10 ng/ml, IL-1β 2 ng/ml, IFNγ 10 ng/ml) for 24 h, cocktail alone gives approx. 20% decrease in myotube diameter vs vehicle control",block almost completely the cytokine-induced atrophy
same,effect on cytokine-induced atrophy (myotube diameter),"higher concentrations of Compound A (above 1 nM), cytokine cocktail for 24 h",exert the same effect
